Assay: Essential fatty acid (EFA) parameters in plasma and RBC, gas chromatography of fatty acid methyl esters
Assay type: in vivo, human
Protocol: Blood samples (10 mL) were collected at Visit 1 (screening) and at Visits 4, 5 and 6. Analysis was performed by MSR Lipid Analysis, Scottish Crop Research Institute, Dundee, UK. The screening sample acted as baseline for the EFA measurements. Lipid was extracted from plasma, serum and RBC suspensions and converted into fatty acid methyl esters which were analyzed by gas chromatography to give fatty acid profiles as micrograms fatty acid per gram of sample (μgFA/g) and normalized area percent.
RBC and plasma EFA data were collected at baseline, Day 14, 28 and 42 and summarized by visit for each treatment group. Change from baseline and percent change from baseline were also summarized. ANCOVA comparison of ethyl-EPA dose groups and ethyl-EPA versus placebo was performed.
Notable changes for these parameters occurred in the ethyl-EPA treatment groups at Days 14, 28 and 42 compared to placebo.

[1] = plasma, 1 g daily group, Baseline
[2] = plasma, 2 g daily group, Baseline
[3] = plasma, 4 g daily group, Baseline

With CC/C=C\C/C=C\C/C=C\C/C=C\C/C=C\CCCC(=O)OCC [Ethyl-EPA, all-cis eicosa-5,8,11,14,17-pentaenoic acid ethyl ester] the “EPA, DPAn-3 and EPA/AA ratio values, change from baseline” value (plasma and RBC, to Day 42, 1, 2 and 4 g) was “increased substantially from baseline”, the “AA, DHA and DGLA values, change from baseline” value (plasma and RBC, to day 42, 1, 2 and 4 g) was “decreased substantially from baseline” and the “AA Mean at Baseline” value [1] was 202.5 µg/g. The “DGLA Mean at Baseline” value [1] was 51.2 µg/g, the “DHA Mean at Baseline” value [1] was 73.1 µg/g and the “DPAn-3 Mean at Baseline” value [1] was 21.1 µg/g. The “EPA Mean at Baseline” value [1] was 48.3 µg/g, the “EPA/AA Mean (SD) at Baseline” value [1] was 0.2 (0.14) and the “AA Mean change from Baseline” value (plasma, 1 g daily, Day 14) was -9.7 µg/g. The “DGLA Mean change from Baseline” value (plasma, 1 g daily, Day 14) was -10.4 µg/g, the “DHA Mean change from Baseline” value (plasma, 1 g daily, Day 14) was -6.4 µg/g and the “DPAn-3 Mean change from Baseline” value (plasma, 1 g daily, Day 14) was 7.5 µg/g. For the same compound, the “EPA Mean change from Baseline” value (plasma, 1 g daily, Day 14) was 61.2 µg/g, the “EPA/AA Mean (SD) change from Baseline” value (plasma, 1 g daily, Day 14) was 0.3 (0.4) and the “AA Mean change from Baseline” value (plasma, 1 g daily, Day 28) was -11.3 µg/g. For the same compound, the “DGLA Mean change from Baseline” value (plasma, 1 g daily, Day 28) was -10.6 µg/g, the “DHA Mean change from Baseline” value (plasma, 1 g daily, Day 28) was -6.6 µg/g and the “DPAn-3 Mean change from Baseline” value (plasma, 1 g daily, Day 28) was 8.9 µg/g. For the same compound, the “EPA Mean change from Baseline” value (plasma, 1 g daily, Day 28) was 60.3 µg/g, the “EPA/AA Mean (SD) change from Baseline” value (plasma, 1 g daily, Day 28) was 0.3 (0.20) and the “AA Mean change from Baseline” value (plasma, 1 g daily, Day 42) was -8.7 µg/g. For the same compound, the “DGLA Mean change from Baseline” value (plasma, 1 g daily, Day 42) was -9.4 µg/g, the “DHA Mean change from Baseline” value (plasma, 1 g daily, Day 42) was -5.4 µg/g and the “DPAn-3 Mean change from Baseline” value (plasma, 1 g daily, Day 42) was 11.3 µg/g. For the same compound, the “EPA Mean change from Baseline” value (plasma, 1 g daily, Day 42) was 62.0 µg/g, the “EPA/AA Mean (SD) change from Baseline” value (plasma, 1 g daily, Day 42) was 0.3 (0.24) and the “AA LS Mean, 1 or 2 g versus 4 g” value (plasma, 1 g versus 4 g) was 4.2 µg/g. The “DGLA LS Mean, 1 or 2 g versus 4 g” value (plasma, 1 g versus 4 g) was 3.7 µg/g, the “DHA LS Mean, 1 or 2 g versus 4 g” value (plasma, 1 g versus 4 g) was -0.8 µg/g and the “DPAn-3 LS Mean, 1 or 2 g versus 4 g” value (plasma, 1 g versus 4 g) was -15.1 µg/g. The “EPA LS Mean, 1 or 2 g versus 4 g” value (plasma, 1 g versus 4 g) was -111.8 µg/g, the “EPA/AA LS Mean, 1 or 2 g versus 4 g” value (plasma, 1 g versus 4 g) was −0.66 and the “AA Mean at Baseline” value [2] was 227.3 µg/g. For the same compound, the “DGLA Mean at Baseline” value [2] was 53.5 µg/g, the “DHA Mean at Baseline” value [2] was 75.1 µg/g and the “DPAn-3 Mean at Baseline” value [2] was 19.7 µg/g. The “EPA Mean at Baseline” value [2] was 4.49 µg/g, the “EPA/AA Mean at Baseline” value [2] was 0.2 and the “AA Mean change from Baseline” value (plasma, 2 g daily, Day 14) was -13.9 µg/g. For the same compound, the “DGLA Mean change from Baseline” value (plasma, 2 g daily, Day 14) was -14.1 µg/g, the “DHA Mean change from Baseline” value (plasma, 2 g daily, Day 14) was -5.4 µg/g and the “DPAn-3 Mean change from Baseline” value (plasma, 2 g daily, Day 14) was 17.4 µg/g. The “EPA Mean change from Baseline” value (plasma, 2 g daily, Day 14) was 124.6 µg/g, the “EPA/AA Mean change from Baseline” value (plasma, 2 g daily, Day 14) was 0.6 and the “AA Mean change from Baseline” value (plasma, 2 g daily, Day 28) was 21.6 µg/g. For the same compound, the “DGLA Mean change from Baseline” value (plasma, 2 g daily, Day 28) was -16.2 µg/g, the “DHA Mean change from Baseline” value (plasma, 2 g daily, Day 28) was -8.1 µg/g and the “DPAn-3 Mean change from Baseline” value (plasma, 2 g daily, Day 28) was 19.4 µg/g. The “EPA Mean change from Baseline” value (plasma, 2 g daily, Day 28) was 142.2 µg/g, the “EPA/AA Mean change from Baseline” value (plasma, 2 g daily, Day 28) was 0.8 and the “AA Mean change from Baseline” value (plasma, 2 g daily, Day 42) was -27.3 µg/g. The “DGLA Mean change from Baseline” value (plasma, 2 g daily, Day 42) was -17.3 µg/g, the “DHA Mean change from Baseline” value (plasma, 2 g daily, Day 42) was -6.0 µg/g and the “DPAn-3 Mean change from Baseline” value (plasma, 2 g daily, Day 42) was 19.3 µg/g. The “EPA Mean change from Baseline” value (plasma, 2 g daily, Day 42) was 133.4 µg/g, the “EPA/AA Mean change from Baseline” value (plasma, 2 g daily, Day 42) was 0.7 and the “AA LS Mean, 1 or 2 g versus 4 g” value (plasma, 2 g versus 4 g) was 15.6 µg/g. The “DGLA LS Mean, 1 or 2 g versus 4 g” value (plasma, 2 g versus 4 g) was 2.5 µg/g, the “DHA LS Mean, 1 or 2 g versus 4 g” value (plasma, 2 g versus 4 g) was 1.5 µg/g and the “DPAn-3 LS Mean, 1 or 2 g versus 4 g” value (plasma, 2 g versus 4 g) was -9.5 µg/g. For the same compound, the “EPA LS Mean, 1 or 2 g versus 4 g” value (plasma, 2 g versus 4 g) was -60.9 µg/g, the “EPA/AA LS Mean, 1 or 2 g versus 4 g” value (plasma, 2 g versus 4 g) was −0.41 and the “AA Mean (SD) at Baseline” value [3] was 220.9 (42.80) μg/g. The “DGLA Mean at Baseline” value [3] was 57.1 µg/g, the “DHA Mean at Baseline” value [3] was 78.8 µg/g and the “DPAn-3 Mean at Baseline” value [3] was 21.7 µg/g. For the same compound, the “EPA Mean at Baseline” value [3] was 49.1 µg/g, the “EPA/AA Mean (SD) at Baseline” value [3] was 0.2 (0.07) and the “AA Mean (SD) change from Baseline” value (plasma, 4 g daily, Day 14) was −27.2 (28.89) μg/g. For the same compound, the “DGLA Mean change from Baseline” value (plasma, 4 g daily, Day 14) was -22.9 µg/g, the “DHA Mean change from Baseline” value (plasma, 4 g daily, Day 14) was -10.3 µg/g and the “DPAn-3 Mean change from Baseline” value (plasma, 4 g daily, Day 14) was 24.5 µg/g. The “EPA Mean change from Baseline” value (plasma, 4 g daily, Day 14) was 207.7 µg/g, the “EPA/AA Mean (SD) change from Baseline” value (plasma, 4 g daily, Day 14) was 1.1 (0.28) and the “AA Mean (SD) change from Baseline” value (plasma, 4 g daily, Day 28) was −43.7 (32.24) μg/g. The “DGLA Mean change from Baseline” value (plasma, 4 g daily, Day 28) was -24.2 µg/g, the “DHA Mean change from Baseline” value (plasma, 4 g daily, Day 28) was -13.5 µg/g and the “DPAn-3 Mean change from Baseline” value (plasma, 4 g daily, Day 28) was 29.7 µg/g. The “EPA Mean change from Baseline” value (plasma, 4 g daily, Day 28) was 215.2 µg/g, the “EPA/AA Mean (SD) change from Baseline” value (plasma, 4 g daily, Day 28) was 1.3 (0.42) and the “AA Mean (SD) change from Baseline” value (plasma, 4 g daily, Day 42) was −48.3 (22.20) μg/g. For the same compound, the “DGLA Mean change from Baseline” value (plasma, 4 g daily, Day 42) was -22.5 µg/g, the “DHA Mean change from Baseline” value (plasma, 4 g daily, Day 42) was -13.8 µg/g and the “DPAn-3 Mean change from Baseline” value (plasma, 4 g daily, Day 42) was 32.0 µg/g. The “EPA Mean change from Baseline” value (plasma, 4 g daily, Day 42) was 204.6 µg/g and the “EPA/AA Mean (SD) change from Baseline” value (plasma, 4 g daily, Day 42) was 1.3 (0.45).

Reference: patent publication US11439618B2, “Compositions and methods for lowering triglycerides” (Amarin Pharmaceuticals Ireland Limited, priority 2009, dated 2022)
